In patent publication US20220267260A1, “COMPOUNDS CONTAINING A SULFONIC GROUP AS KAT INHIBITORS” (Epizyme, Inc., priority 2016, published 2022):

Experiments:
KAT5 = molecular target: T1, KAT5 (Homo sapiens, UniProt Q92993); test: KAT5 enzyme inhibition assay (SAMDI mass spectrometry); type: biochemical; details: His-TEV-FL KAT5-Flag enzyme construct
T1 construct: His-TEV tag (N, cleaved yes); made in house

KAT6A = molecular target: T2, KAT6A (Homo sapiens, UniProt Q92794); test: KAT6A enzyme inhibition assay (SAMDI mass spectrometry); type: biochemical; details: His-TEV-KAT6A 501-784 enzyme construct
T2 construct: His-TEV tag (N, cleaved yes); made in house
T2 sequence (Q92794 with tags, fused parts or gaps): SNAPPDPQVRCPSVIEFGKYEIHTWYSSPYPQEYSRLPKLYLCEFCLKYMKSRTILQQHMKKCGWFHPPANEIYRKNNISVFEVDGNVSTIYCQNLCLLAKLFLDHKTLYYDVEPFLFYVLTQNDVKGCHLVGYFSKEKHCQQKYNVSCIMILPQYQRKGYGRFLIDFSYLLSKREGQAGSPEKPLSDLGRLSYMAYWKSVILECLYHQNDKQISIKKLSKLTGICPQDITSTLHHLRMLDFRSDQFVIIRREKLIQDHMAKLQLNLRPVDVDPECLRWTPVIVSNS

T1 sequence (Q92993 with tags, fused parts or gaps): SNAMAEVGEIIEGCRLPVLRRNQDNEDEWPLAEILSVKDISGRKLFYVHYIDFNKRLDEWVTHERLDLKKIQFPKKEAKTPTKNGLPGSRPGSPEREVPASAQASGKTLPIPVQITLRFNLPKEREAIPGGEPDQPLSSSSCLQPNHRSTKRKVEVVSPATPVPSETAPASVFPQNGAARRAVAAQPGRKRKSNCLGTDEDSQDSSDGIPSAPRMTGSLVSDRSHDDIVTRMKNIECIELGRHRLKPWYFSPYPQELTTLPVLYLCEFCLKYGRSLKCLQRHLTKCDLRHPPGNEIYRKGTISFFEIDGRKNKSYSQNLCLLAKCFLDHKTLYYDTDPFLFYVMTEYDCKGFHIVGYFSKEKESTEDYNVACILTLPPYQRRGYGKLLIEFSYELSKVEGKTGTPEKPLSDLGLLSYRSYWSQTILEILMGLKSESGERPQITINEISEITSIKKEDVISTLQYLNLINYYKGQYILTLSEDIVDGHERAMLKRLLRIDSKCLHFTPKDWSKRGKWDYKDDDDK

Structure (SMILES) | IC50 (KAT5) [µM] | IC50 (KAT6A) [µM]
COc1ccc(S(=O)(=O)NNC(=O)c2c(F)ccc(-c3ccccc3)c2C)cc1 [Compound I-186] | 50 to 100 | 10 to 50
Cc1cc(-c2ccccc2)cc(C(=O)NNS(=O)(=O)c2cccc(Cl)c2)c1F [Compound I-187] | ≤ 10 | ≤ 10
Cc1cccc(S(=O)(=O)NNC(=O)c2cc(-c3ccccc3)cc(C)c2F)c1 [Compound I-188] | ≤ 10 | ≤ 10
O=C(NNS(=O)(=O)c1ccccc1)c1ncccn1 [Compound I-189] | > 100 | > 100
O=C(NNS(=O)(=O)c1ccccc1)c1cccc(Cl)c1 [Compound I-190] | 50 to 100 | 10 to 50
COc1ccc(C(=O)NNS(=O)(=O)c2ccccc2)cc1 [Compound I-192] | > 100 | > 100
O=C(NNS(=O)(=O)c1ccccc1)c1ccc(F)cc1 [Compound I-193] | > 100 | 50 to 100
O=C(NNS(=O)(=O)c1ccccc1)c1ccccn1 [Compound I-194] | > 100 | > 100
Cc1cc(-c2cccnc2)cc(C(=O)NNS(=O)(=O)c2ccccc2)c1F [Compound I-195] | 10 to 50 | ≤ 10
O=C(NNS(=O)(=O)c1ccccc1)c1n[nH]c2ccccc12 [Compound I-196] | > 100 | 50 to 100
O=C(NNS(=O)(=O)c1ccccc1)c1cnn(-c2ccccc2)c1 [Compound I-197] | > 100 | > 100
O=C(NNS(=O)(=O)c1cccc(Cl)c1)c1c(F)ccc(Cl)c1F [Compound I-198] | 50 to 100 | ≤ 10
Cc1cc(-c2ccccc2)cc(C(=O)N2CC(S(=O)(=O)c3ccccc3)C2)c1F [Compound I-199] | > 100 | > 100
Cc1ccc(-c2ccccc2)c(C)c1C(=O)NNS(=O)(=O)c1ccccc1 [Compound I-200] | > 100 | > 100
Cc1cc(-c2ccncc2)cc(C(=O)NNS(=O)(=O)c2ccccc2)c1F [Compound I-202] | > 100 | 10 to 50
Cc1cccc(C(=O)NNS(=O)(=O)C2CNC2)c1F [Compound I-203] | > 100 | > 100
Cc1c(F)cc(-c2ccccc2)cc1C(=O)NNS(=O)(=O)c1ccccc1 [Compound I-205] | > 100 | 50 to 100
Cc1cc(-c2ccccc2)cc(C(=O)NNS(=O)(=O)CC2CCN(C(=O)OC(C)(C)C)C2)c1F (stereo not shown) [Compound I-206] | ≤ 10 | ≤ 10
Cc1cc(-c2ccccc2)cc(C(=O)NNS(=O)(=O)CC2CN(C(=O)OC(C)(C)C)C2)c1F [Compound I-207] | ≤ 10 | ≤ 10
COCCN1CC(CS(=O)(=O)NNC(=O)c2cc(-c3ccccc3)cc(C)c2F)C1 [Compound I-208] | 10 to 50 | 10 to 50
Cc1cc(-c2ccccc2)cc(C(=O)NNS(=O)(=O)c2ccccn2)c1F [Compound I-209] | ≤ 10 | ≤ 10
Cc1cc(-c2ccccc2)cc(C(=O)NNS(=O)(=O)c2cccc(OCc3ccccc3)c2)c1F [Compound I-210] | ≤ 10 | ≤ 10
Cc1cc(-c2ccccc2)cc(C(=O)NNS(=O)(=O)c2ccc(O)cc2)c1F [Compound I-211] | ≤ 10 | ≤ 10
O=C(NS(=O)(=O)Nc1ccccc1)c1c(F)ccc(-c2ccccc2)c1F [Compound I-212] | > 100 | 50 to 100
Cc1cc(-c2ccccc2)cc(C(=O)Nc2cn[nH]c2)c1F [Compound I-213] | > 100 | > 100

Structure (SMILES) | IC50 (KAT5) [µM] | IC50 (KAT6A) [µM]
Cc1cc(-c2ccccc2)cc(C(=O)NNS(=O)(=O)c2cccc(F)c2)c1F [Compound I-214] | ≤ 10 | ≤ 10
Cc1cc(-c2ccccc2)cc(C(=O)N(C)NS(=O)(=O)c2ccccc2)c1F [Compound I-215] | > 100 | 10 to 50
CCc1cc(-c2ccccc2)cc(C(=O)NNS(=O)(=O)c2ccccc2)c1F [Compound I-216] | ≤ 10 | ≤ 10
Cc1cc(-c2ccccc2)cc(C(=O)NNS(=O)(=O)c2ccc(Cl)cc2)c1F [Compound I-217] | ≤ 10 | ≤ 10
CNC(=O)c1cccc(S(=O)(=O)NNC(=O)c2cc(-c3ccccc3)cc(C)c2F)c1 [Compound I-219] | ≤ 10 | ≤ 10
O=C(NNS(=O)(=O)c1ccccc1)c1cc(-c2ccccc2)cc(Cl)c1F [Compound I-220] | ≤ 10 | ≤ 10
CCc1cccc(S(=O)(=O)NNC(=O)c2cc(-c3ccccc3)cc(C)c2F)c1 [Compound I-221] | 10 to 50 | ≤ 10
COc1ccc(Cn2cnc(-c3ccc(F)c(C(=O)NNS(=O)(=O)c4ccccc4)c3F)c2)cc1 [Compound I-222] | 50 to 100 | ≤ 10
Cc1cc(-c2ccccc2)c(F)c(C(=O)NNS(=O)(=O)c2ccccc2)c1F [Compound I-223] | ≤ 10 | ≤ 10
Cc1cc(-c2ccccc2)cc(C(=O)NNS(=O)(=O)CC2CCN(C(=O)OC(C)(C)C)CC2)c1F [Compound I-224] | ≤ 10 | ≤ 10
Cc1c(-c2ccccc2)ccc(F)c1C(=O)NNS(=O)(=O)c1ccccc1Cl [Compound I-225] | 50 to 100 | 10 to 50
Cc1cccc(S(=O)(=O)NNC(=O)c2cccc(-c3ccccc3)c2F)c1 [Compound I-226] | > 100 | ≤ 10
Cc1cc(-c2ccccc2)cc(C(=O)NNS(=O)(=O)CC2CCCCC2)c1F [Compound I-227] | ≤ 10 | ≤ 10
CCS(=O)(=O)NNC(=O)c1c(F)ccc(-c2ccccc2)c1C [Compound I-228] | > 100 | > 100
Cc1cccc(-c2cccc(C(=O)NNS(=O)(=O)c3ccccc3)c2F)c1 [Compound I-229] | 10 to 50 | 10 to 50
O=C(NNS(=O)(=O)c1ccccc1)c1cnn(Cc2ccccc2)c1 [Compound I-230] | > 100 | > 100
Cc1c(-c2ccccc2)ccc(F)c1C(=O)NNS(=O)(=O)C(C)C [Compound I-231] | > 100 | > 100
COc1cccc(S(=O)(=O)NNC(=O)c2cc(-c3ccccc3)cc(C)c2F)c1 [Compound I-232] | ≤ 10 | ≤ 10
O=C(NNS(=O)(=O)c1ccccc1)c1c(F)ccc(-c2ccccc2)c1F [Compound I-233] | 10 to 50 | ≤ 10
O=C(NNS(=O)(=O)c1ccccc1)c1cccc(-c2ccccc2)c1F [Compound I-234] | > 100 | ≤ 10
Cc1cc(-c2ccccc2)cc(C(=O)NNS(=O)(=O)c2cccc(O)c2)c1F [Compound I-235] | ≤ 10 | ≤ 10
O=C(NNS(=O)(=O)c1ccccc1)c1c(F)ccc2ccccc12 [Compound I-236] | > 100 | > 100
COc1ccccc1S(=O)(=O)NNC(=O)c1c(F)ccc(-c2ccccc2)c1C [Compound I-237] | > 100 | 50 to 100
Cc1cc(-c2ccccc2)cc(C(=O)NNS(=O)(=O)c2ccc(C(N)=O)cc2)c1F [Compound I-239] | ≤ 10 | ≤ 10
Cc1c(-c2ccccc2)ccc(F)c1C(=O)NNS(=O)(=O)c1ccc2ccccc2c1 [Compound I-240] | 10 to 50 | 10 to 50
